Measurements from patent US12428406B2 (PMV Pharmaceuticals, Inc., priority 2019, dated 2025).

Molecular target: T1, p53 Y220C (Homo sapiens, UniProt P04637, Y220C)
T1 construct: The recombinant protein was a truncation mutant containing only amino acids 94-312 of p53; made in house; host or cells: E. coli
Test: In vitro DNA binding activity assay (HTRF / TR-FRET): stabilization of p53 Y220C and increase of its DNA binding activity
Format: biochemical
Details: recombinant His-tagged p53 Y220C DNA binding domain (aa 94-312), biotin-labeled consensus DNA, incubated at 27° C. or 29° C. for 60 min
Method in brief: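 Compounds from 4.5 mM DMSO stocks, 3-fold serial dilutions; room-temperature incubations of 15 and 20 min. SC150 = concentration raising DNA binding by 50% over no-compound control.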

T1 sequence (P04637 94-312, change not shown): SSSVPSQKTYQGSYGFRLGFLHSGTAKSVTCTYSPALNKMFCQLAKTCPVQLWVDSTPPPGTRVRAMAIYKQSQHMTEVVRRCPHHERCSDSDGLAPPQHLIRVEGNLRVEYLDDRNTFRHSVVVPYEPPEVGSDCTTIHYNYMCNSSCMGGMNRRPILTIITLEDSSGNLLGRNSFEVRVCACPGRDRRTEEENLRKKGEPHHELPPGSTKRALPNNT

Row | SMILES | SC150 (concentration of the compound required to increase the DNA binding activity by 50%)
1 | CNC(=O)c1ccc(NCC#Cc2cc3c(N[C@@H]4CCN(C)C[C@@H]4F)cccc3n2CC(F)(F)F)c(OC)c1 [Compound 804A, 4-{[3-(4-{[(3S,4R)-3-fluoro-1-methylpiperidin-4-yl]amino}-1-(2,2,2-trifluoroethyl)-1H-indol-2-yl)prop-2-yn-1-yl]amino}-3-methoxy-N-methylbenzamide] | + (+ = 0 μM ≤ SC150 < 0.05 μM)
2 | CNC(=O)c1ccc(NCC#Cc2cc3c(N[C@H]4CCN(C)C[C@H]4F)cccc3n2CC(F)(F)F)c(OC)c1 [Compound 805A, 4-{[3-(4-{[(3R,4S)-3-fluoro-1-methylpiperidin-4-yl]amino}-1-(2,2,2-trifluoroethyl)-1H-indol-2-yl)prop-2-yn-1-yl]amino}-3-methoxy-N-methylbenzamide] | + (+ = 0 μM ≤ SC150 < 0.05 μM)
3 | COc1cc(C(=O)NC(C)C)ccc1NCC#Cc1cc2c(N[C@@H]3CCN(C)C[C@@H]3F)cccc2n1CC(F)(F)F [Compound 808A, 4-{[3-(4-{[(3S,4R)-3-fluoro-1-methylpiperidin-4-yl]amino}-1-(2,2,2-trifluoroethyl)-1H-indol-2-yl)prop-2-yn-1-yl]amino}-3-methoxy-N-(propan-2-yl)benzamide] | + (+ = 0 μM ≤ SC150 < 0.05 μM)
4 | COc1cc(C(=O)O)ccc1NCC#Cc1cc2c(N[C@@H]3CCN(C(C)C)C[C@@H]3F)cccc2n1CC(F)(F)F [Compound 809A, 4-{[3-(4-{[(3S,4R)-3-fluoro-1-(propan-2-yl)piperidin-4-yl]amino}-1-(2,2,2-trifluoroethyl)-1H-indol-2-yl)prop-2-yn-1-yl]amino}-3-methoxybenzoic acid] | + (+ = 0 μM ≤ SC150 < 0.05 μM)
5 | COc1cc(C(=O)O)ccc1NCC#Cc1cc2c(N[C@H]3CCN(C(C)C)C[C@H]3F)cccc2n1CC(F)(F)F [Compound 810A, 4-{[3-(4-{[(3R,4S)-3-fluoro-1-(propan-2-yl)piperidin-4-yl]amino}-1-(2,2,2-trifluoroethyl)-1H-indol-2-yl)prop-2-yn-1-yl]amino}-3-methoxybenzoic acid] | + (+ = 0 μM ≤ SC150 < 0.05 μM)
6 | CCN1CC[C@@H](Nc2cccc3c2cc(C#CCNc2ccc(S(C)(=O)=O)cc2OC)n3CC(F)(F)F)[C@@H](F)C1 [Compound 812A] | + (+ = 0 μM ≤ SC150 < 0.05 μM)
7 | CCN1CC[C@H](Nc2cccc3c2cc(C#CCNc2ccc(S(C)(=O)=O)cc2OC)n3CC(F)(F)F)[C@H](F)C1 [Compound 813A] | + (+ = 0 μM ≤ SC150 < 0.05 μM)
8 | CCOC(=O)c1ccc(NCC#Cc2cc3c(N[C@@H]4CCN(C(C)C)C[C@@H]4F)cccc3n2CC(F)(F)F)c(OC)c1 [Compound 821A] | + (+ = 0 μM ≤ SC150 < 0.05 μM)
9 | CCOC(=O)c1ccc(NCC#Cc2cc3c(N[C@@H]4CCN(CC)C[C@@H]4F)cccc3n2CC(F)(F)F)c(OC)c1 [Compound 823A] | + (+ = 0 μM ≤ SC150 < 0.05 μM)
10 | CCOC(=O)c1ccc(NCC#Cc2cc3c(N[C@H]4CCN(CC)C[C@H]4F)cccc3n2CC(F)(F)F)c(OC)c1 [Compound 824A] | + (+ = 0 μM ≤ SC150 < 0.05 μM)

Next, values leading:

Row | SC150 (concentration of the compound required to increase the DNA binding activity by 50%) | SMILES
11 | + (+ = 0 μM ≤ SC150 < 0.05 μM) | CCOC(=O)c1ccc(NCC#Cc2cc3c(N[C@H]4CCN(C(C)C)C[C@H]4F)cccc3n2CC(F)(F)F)c(OC)c1 [Compound 825A]
12 | + (+ = 0 μM ≤ SC150 < 0.05 μM) | CNC(=O)c1cc(OC)c(NCC#Cc2cc3c(N[C@@H]4CCN(C)C[C@@H]4F)cccc3n2CC(F)(F)F)cc1F [Compound 826A, 2-fluoro-4-{[3-(4-{[(3S,4R)-3-fluoro-1-methylpiperidin-4-yl]amino}-1-(2,2,2-trifluoroethyl)-1H-indol-2-yl)prop-2-yn-1-yl]amino}-5-methoxy-N-methylbenzamide]
13 | + (+ = 0 μM ≤ SC150 < 0.05 μM) | CNC(=O)c1cc(OC)c(NCC#Cc2cc3c(N[C@H]4CCN(C)C[C@H]4F)cccc3n2CC(F)(F)F)cc1F [Compound 827A, 2-fluoro-4-{[3-(4-{[(3R,4S)-3-fluoro-1-methylpiperidin-4-yl]amino}-1-(2,2,2-trifluoroethyl)-1H-indol-2-yl)prop-2-yn-1-yl]amino}-5-methoxy-N-methylbenzamide]
14 | + (+ = 0 μM ≤ SC150 < 0.05 μM) | CCN1CC[C@H](Nc2cccc3c2cc(C#CCNc2ccc(C(=O)O)cc2OC)n3CC(F)(F)F)[C@H](F)C1 [Compound 828A, 4-{[3-(4-{[(3R,4S)-1-ethyl-3-fluoropiperidin-4-yl]amino}-1-(2,2,2-trifluoroethyl)-1H-indol-2-yl)prop-2-yn-1-yl]amino}-3-methoxybenzoic acid]
15 | + (+ = 0 μM ≤ SC150 < 0.05 μM) | CCN1CC[C@@H](Nc2cccc3c2cc(C#CCNc2ccc(C(=O)O)cc2OC)n3CC(F)(F)F)[C@@H](F)C1 [Compound 829A, 4-{[3-(4-{[(3S,4R)-1-ethyl-3-fluoropiperidin-4-yl]amino}-1-(2,2,2-trifluoroethyl)-1H-indol-2-yl)prop-2-yn-1-yl]amino}-3-methoxybenzoic acid]
16 | + (+ = 0 μM ≤ SC150 < 0.05 μM) | CN1CC[C@@H](Nc2cccc3c2cc(C#CCNc2ccc(S(C)(=O)=O)cc2O)n3CC(F)(F)F)[C@@H](F)C1 [Compound 834A, 2-{[3-(4-{[(3S,4R)-3-fluoro-1-methylpiperidin-4-yl]amino}-1-(2,2,2-trifluoroethyl)-1H-indol-2-yl)prop-2-yn-1-yl]amino}-5-methanesulfonylphenol]
17 | + (+ = 0 μM ≤ SC150 < 0.05 μM) | CN1CC[C@H](Nc2cccc3c2cc(C#CCNc2ccc(S(C)(=O)=O)cc2O)n3CC(F)(F)F)[C@H](F)C1 [Compound 835A, 2-{[3-(4-{[(3R,4S)-3-fluoro-1-methylpiperidin-4-yl]amino}-1-(2,2,2-trifluoroethyl)-H-indol-2-yl)prop-2-yn-1-yl]amino}-5-methanesulfonylphenol]
18 | + (+ = 0 μM ≤ SC150 < 0.05 μM) | COc1cc(S(=O)(=O)NC(C)=O)ccc1NCC#Cc1cc2c(N[C@@H]3CCN(C)C[C@@H]3F)cccc2n1CC(F)(F)F [Compound 837A, N-(4-{[3-(4-{[(3S,4R)-3-fluoro-1-methylpiperidin-4-yl]amino}-1-(2,2,2-trifluoroethyl)-1H-indol-2-yl)prop-2-yn-1-yl]amino}-3-methoxybenzenesulfonyl)acetamide]
19 | + (+ = 0 μM ≤ SC150 < 0.05 μM) | COc1cc(S(=O)(=O)NC(C)=O)ccc1NCC#Cc1cc2c(N[C@H]3CCN(C)C[C@H]3F)cccc2n1CC(F)(F)F [Compound 838A, N-(4-{[3-(4-{[(3R,4S)-3-fluoro-1-methylpiperidin-4-yl]amino}-1-(2,2,2-trifluoroethyl)-1H-indol-2-yl)prop-2-yn-1-yl]amino}-3-methoxybenzenesulfonyl)acetamide]
